# In paper PMC10179075 (International Journal of Molecular Sciences, 2023):
# Positions count from the first letter of the chain named. Read-outs that look alike come from different tables or passages of the source.
# Experiments:
# [1] = molecular target: E. indica EPSPS enzymes (WT, P106L, P106S, TIPS); assay: ForteBio Octet binding, range over the EPSPS enzymes; design: species or system Eleusine indica
# Protocol: (§1) Target EPSPS genes with different mutations were amplified through PCR using primers (Supplementary Table S4) and the synthesised cDNA, then cloned into the BamHI and HindIII cleavage sites of the pET-28a expression vector (New England Biolabs Inc., Ipswich, MA, USA). After DNA sequencing, the pET-28a plasmid (Thermo Fisher Scientific Inc., Waltham MA, USA) containing the target genes was transformed into BL21 (DE3) cells (Thermo Fisher Scientific Inc.). Selected clones were cultured in Luria-Bertani medium. Cells containing target genes that had grown to an OD600 of 0.5 were induced with […] IPTG (0487; Amresco LLC, Solon, OH, USA) at 37 °C for 4 h. […] Target protein concentrations were determined using the Bradford method (500-0001) with Dye Reagent (both from Bio-Rad Laboratories Inc., Hercules, CA, USA).
# To prevent primary amines reducing the biotinylation ratio, the EPSPS and mutations were exchanged with PBS buffer using a PD10 desalting column (17085101; Cytiva, Global Life Sciences Solutions USA, LLC.) as described by the manufacturer. The proteins were then concentrated using an ultrafilter (Merck KGaA, Darmstadt, Germany), then the concentrations were determined, as described above. […]
# (§2) Data for protein-small molecule binding studies and curve fitting were analysed using ForteBio Data Analysis Software v. […]
# [2] = molecular target: T1, natural (wild type) E. indica EPSPS (EiEPSPS), recombinant expressed in E. coli (Eleusine indica, UniProt Q95AK0); assay: ForteBio Octet binding kinetics, wild type EPSPS
# T1 sequence (Q95AK0 43-445): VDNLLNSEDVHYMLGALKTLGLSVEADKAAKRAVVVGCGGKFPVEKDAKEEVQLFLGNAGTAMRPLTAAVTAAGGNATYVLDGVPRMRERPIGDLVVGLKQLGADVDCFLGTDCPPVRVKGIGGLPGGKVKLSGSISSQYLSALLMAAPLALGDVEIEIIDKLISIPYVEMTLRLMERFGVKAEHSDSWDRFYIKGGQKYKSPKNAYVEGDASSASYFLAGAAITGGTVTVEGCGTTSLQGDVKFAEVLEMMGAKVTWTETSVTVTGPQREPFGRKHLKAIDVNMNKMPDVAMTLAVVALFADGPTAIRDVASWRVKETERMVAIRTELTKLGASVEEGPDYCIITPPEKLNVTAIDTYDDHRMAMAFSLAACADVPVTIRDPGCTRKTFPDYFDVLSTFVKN
# Protocol: as §1, with “h. The cells were then pelleted through centrifugation at 10,000× g for 10 min and resuspended in 50 mM Tris-HCl and 150 mM NaCl, pH 7.4 (buffer A). The suspension was sonicated and centrifuged at 12,000× g for 30 min, the supernatant was filtered through a 0.22 µm membrane and passed through a HiTrap His column (10318950; Cytiva, Global Life Sciences Solutions USA, LLC., Marlborough, MA, USA).” for “h.”
# To prevent primary amines reducing the biotinylation ratio, the EPSPS and mutations were exchanged with PBS buffer using a PD10 desalting column (17085101; Cytiva, Global Life Sciences Solutions USA, LLC.) as described by the manufacturer. The proteins were then concentrated using an ultrafilter (Merck KGaA, Darmstadt, Germany), then the concentrations were determined, as described above. […] A mixture of protein and sulfo-NHS-LC-biotin at a molar ratio of 1:5 was incubated at 4 °C for 16 h, then free biotin molecules were removed using a PD10 desalting column and biotinylated protein concentrations were measured using the Bradford method. […]
# as §2
# [3] = molecular target: T2, His-tagged recombinant EiEPSPS, Thr102Ile + Pro106Ser (IISS) (Eleusine indica, UniProt Q95AK0, P107S/T103I); assay: EPSPS Michaelis-Menten kinetics, Thr102Ile + Pro106Ser; type: biochemical; conditions: TIPS mutant vs natural EPSPS
# T2 sequence (Q95AK0 43-445 T103I/P107S): T1 sequence (Q95AK0 43-445) with T61I, P65S
# From the text: (§3) Figure 2 Characteristics of EPSPS with different mutations (WT, P106S, P106L, and TIPS) from purified enzyme extracts of Escherichia coli variants. […] Reactions were detected as phosphate concentrations based on a standard curve (y = 97.049x − 0.4245, R^2 = 0.99). This experiment was repeated twice with three biological replicates.
# as §1, with “h. The cells were then pelleted through centrifugation at 10,000× g for 10 min and resuspended in 50 mM Tris-HCl and 150 mM NaCl, pH 7.4 (buffer A).” for “h.”
# [4] = molecular target: T3, His-tagged recombinant EiEPSPS, Pro106Leu (LL) (Eleusine indica, UniProt Q95AK0, P107L); assay: EPSPS Michaelis-Menten kinetics, Pro106Leu; type: biochemical; conditions: P106L mutant vs natural EPSPS
# T3 sequence (Q95AK0 43-445 P107L): T1 sequence (Q95AK0 43-445) with P65L
# From the text: as §3
# as §1, with “h. The cells were then pelleted through centrifugation at 10,000× g for 10 min and resuspended in 50 mM Tris-HCl and 150 mM NaCl, pH 7.4 (buffer A).” for “h.”
# [5] = molecular target: T4, His-tagged recombinant EiEPSPS, Pro106Ser (SS) (Eleusine indica, UniProt Q95AK0, P107S); assay: EPSPS Michaelis-Menten kinetics, Pro106Ser; type: biochemical; conditions: P106S mutant vs natural EPSPS
# T4 sequence (Q95AK0 43-445 P107S): T1 sequence (Q95AK0 43-445) with P65S
# From the text: as §3
# as §1, with “h. The cells were then pelleted through centrifugation at 10,000× g for 10 min and resuspended in 50 mM Tris-HCl and 150 mM NaCl, pH 7.4 (buffer A).” for “h.”
# [6] = molecular target: E. indica EPSPS Thr102Ile + Pro106Ser (TIPS) mutant, recombinant expressed in E. coli (Eleusine indica, UniProt Q95AK0, P107S/T103I); assay: biochemical; type: binding
# E. indica EPSPS Thr102Ile + Pro106Ser (TIPS) mutant, recombinant expressed in E. coli, sequence (Q95AK0 entry or part of it T103I/P107S): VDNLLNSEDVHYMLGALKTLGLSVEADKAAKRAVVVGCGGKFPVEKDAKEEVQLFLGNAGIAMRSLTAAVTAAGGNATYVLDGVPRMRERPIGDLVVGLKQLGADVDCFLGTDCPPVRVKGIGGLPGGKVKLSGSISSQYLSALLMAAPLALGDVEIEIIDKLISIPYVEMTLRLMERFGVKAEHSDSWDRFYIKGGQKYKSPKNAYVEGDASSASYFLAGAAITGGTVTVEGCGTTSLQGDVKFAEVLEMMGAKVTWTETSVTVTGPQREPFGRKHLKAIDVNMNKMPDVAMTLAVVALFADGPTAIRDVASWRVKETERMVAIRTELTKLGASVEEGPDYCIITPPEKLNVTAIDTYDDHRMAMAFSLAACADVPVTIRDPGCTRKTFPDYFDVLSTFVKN
# Protocol: (§4) Target EPSPS genes with different mutations were amplified through PCR using primers (Supplementary Table S4) and the synthesised cDNA, then cloned into the BamHI and HindIII cleavage sites of the pET-28a expression vector (New England Biolabs Inc., Ipswich, MA, USA). After DNA sequencing, the pET-28a plasmid (Thermo Fisher Scientific Inc., Waltham MA, USA) containing the target genes was transformed into BL21 (DE3) cells (Thermo Fisher Scientific Inc.). Selected clones were cultured in Luria-Bertani medium. Cells containing target genes that had grown to an OD600 of 0.5 were induced with […] IPTG (0487; Amresco LLC, Solon, OH, USA) at 37 °C for 4 h. The cells were then pelleted through centrifugation at 10,000× g for 10 min and resuspended in 50 mM Tris-HCl and 150 mM NaCl, pH 7.4 (buffer A). The suspension was sonicated and centrifuged at 12,000× g for 30 min, the supernatant was filtered through a 0.22 µm membrane and passed through a HiTrap His column (10318950; Cytiva, Global Life Sciences Solutions USA, LLC., Marlborough, MA, USA). Target proteins were eluted with 50 mM Tris-HCl, 150 mM NaCl, 500 mM imidazole, pH 7.4 (buffer B), resolved through SDS-PAGE, and identified through MALDI-TOF mass spectrometry. Target protein concentrations were determined using the Bradford method (500-0001) with Dye Reagent (both from Bio-Rad Laboratories Inc., Hercules, CA, USA).
# (§5) To prevent primary amines reducing the biotinylation ratio, the EPSPS and mutations were exchanged with PBS buffer using a PD10 desalting column (17085101; Cytiva, Global Life Sciences Solutions USA, LLC.) as described by the manufacturer. The proteins were then concentrated using an ultrafilter (Merck KGaA, Darmstadt, Germany), then the concentrations were determined, as described above. The proteins were biotinylated using the EZ-Link™ Sulfo-NHS-LC-biotinylation kit (21435; Thermo Fisher Scientific Inc.) as described by the manufacturer. A mixture of protein and sulfo-NHS-LC-biotin at a molar ratio of 1:5 was incubated at 4 °C for 16 h, then free biotin molecules were removed using a PD10 desalting column and biotinylated protein concentrations were measured using the Bradford method.
# (§6) We used a ForteBio Octet 96 with high-capacity Super Streptavidin (SSA) biosensors (18-5057; Sartorius Stedim Biotech GmbH, Göttingen, Germany) to study the protein-small molecule binding, and to derive the relevant kinetic data, as well as the affinity constants. The SSA sensors were activated in 50 mM HEPES buffer (pH 7.5) containing 0.02% Tween 20 (v/v) for 10 min, then biotinylated proteins were loaded onto them online for 2 min. Thereafter, the sensors were quenched with 2 μg mL^−1 of biocytin (B1592 Thermo Fisher Scientific Inc.) for 60 s. […] To obtain accurate interaction kinetics, a reference well (containing only buffer) and a reference biosensor were included in the assay for double subtraction analysis.
# (§7) Data for protein-small molecule binding studies and curve fitting were analysed using ForteBio Data Analysis Software v. 9.0. Dissociation constants (KD) indicating binding affinity for protein-small molecules were derived by determining Kon and Koff (association and disassociation rate constants, respectively); KD = Koff/Kon.
# [7] = molecular target: E. indica EPSPS Pro106Ser (P106S) mutant, recombinant expressed in E. coli (Eleusine indica, UniProt Q95AK0, P107S); assay: biochemical; type: binding
# E. indica EPSPS Pro106Ser (P106S) mutant, recombinant expressed in E. coli, sequence (Q95AK0 entry or part of it P107S): as the sequence (Q95AK0 entry or part of it T103I/P107S) above, with I61T counted along it
# Protocol: as §4, §5, §6, §7
# [8] = molecular target: E. indica EPSPS Pro106Leu (P106L) mutant, recombinant expressed in E. coli (Eleusine indica, UniProt Q95AK0, P107L); assay: biochemical; type: binding
# E. indica EPSPS Pro106Leu (P106L) mutant, recombinant expressed in E. coli, sequence (Q95AK0 entry or part of it P107L): as the sequence (Q95AK0 entry or part of it T103I/P107S) above, with I61T, S65L counted along it
# Protocol: as §4, §5, §6, §7
# [9] = system: E. indica IISS population (homozygous TIPS in EPSPS); assay: Whole-plant dose-response assay, IISS population; type: in vivo, Eleusine indica; conditions: glyphosate alone, fresh weight at 21 DAT, value ± SE
# Protocol: (§8) Plants with homozygous mutations Pro106Ser (P106S), Pro106Leu (P106L), Thr102Ile + Pro106Ser (TIPS), and WT were screened from a population with a similar background, as we previously described. […] Plants with the same confirmed genotype were cultured (bulk in isolation) and the seeds were produced and purified. The purified subpopulations were named SS, LL, IISS, and WT. […] The plants were cultured under greenhouse conditions of day and night temperatures of 30 °C and 20 °C (±2 °C), respectively, with a relative humidity of 60% ± 20%, and a 14-h photoperiod, during which LEDs provided light intensity of 300 μmol m^−2 s^−1. After thinning, eight plants per pot were maintained. […] [18]. Thereafter, P450- (10 mM piperonylbutoxide) and GST-inhibitors (3 mM 4-chloro-7-nitro-1, 2, 3-benzoxadiazole) were sprayed to exclude other non-target-site resistance mechanisms. […] Water and inhibitors were applied through control spraying (Supplementary Tables S1 and S3). The fresh weight of the fresh aboveground tissues was measured at 21 DAT. Whole-plant assays were repeated twice in a completely randomised design.
# (§9) Data from the whole-plant assays and emerged seedlings were analysed through nonlinear regression using a log-logistic model: y = y0 + a/[1 + (x/x0)^b] in SigmaPlot 12.0 (Systat Software, San Jose, CA, USA).
# [10] = system: E. indica SS population (homozygous P106S in EPSPS); assay: Whole-plant dose-response assay, SS population; type: in vivo, Eleusine indica; conditions: glyphosate alone, fresh weight at 21 DAT, value ± SE
# Protocol: as §8, §9
# [11] = system: E. indica LL population (homozygous P106L in EPSPS); assay: Whole-plant dose-response assay, LL population; type: in vivo, Eleusine indica; conditions: glyphosate alone, fresh weight at 21 DAT, value ± SE
# Protocol: as §8, §9
# wild type (WT) E. indica = assay: Shikimate accumulation assay, WT population; type: in vivo, Eleusine indica; conditions: 1800 g a.e. ha^−1 (7.1 mM) glyphosate, seven DAT
# Protocol: Leaf tissue samples collected on 1, 3, 5, and 7 DAT were finely ground in liquid nitrogen, added to 1.0 mL of 0.25 mol L^−1 cold HCl, and centrifuged at 12,000 rpm for 30 min. Supernatants (0.2 mL) were incubated with 2 mL of 1% periodic acid for 3 h at room temperature. Thereafter, 2 mL of 1 mol L^−1 NaOH and 1.2 mL of 0.1 mol L^−1 glycine were added, then the optical density of 0.2 mL/well was determined in 96-well plates at 380 nm using a Tecan Infinite 200 Pro plate reader (Tecan Group Ltd., Männedorf, Switzerland). The results for all samples were compared with a standard curve of 0.1–400.0 μg shikimate and are expressed as μg of shikimate g^−1 fresh tissue. This experiment was repeated twice.
# [12] = pH 7.5, read-out: Kon, association rate constant
SMILES,Kd [1] [mM],"Kd ([2]; Wild type EPSPS, Octet SSA biosensors, HEPES pH 7.5, read-out: KD, dissociation constant (KD = Koff/Kon)) [mM]","kon ([2]; Wild type EPSPS, Octet SSA biosensors, HEPES pH 7.5, read-out: Kon, association rate constant) [M⁻¹ s⁻¹]",Km (PEP) fold relative to natural EPSPS [3] [fold],Km (PEP) fold relative to natural EPSPS [4] [fold],Km (PEP) fold relative to natural EPSPS [5] [fold],Kd [6] [mM],"kon ([6]; Thr102Ile + Pro106Ser EPSPS, Octet SSA biosensors, HEPES pH 7.5, read-out: Kon, association rate constant) [M⁻¹ s⁻¹]",Kd [7] [µM],"kon [7, 12] [M⁻¹ s⁻¹]",Kd [8] [µM],"kon [8, 12] [M⁻¹ s⁻¹]","x0, herbicide dose required for 50% plant growth reduction (GR50) [9] [g a.e. ha^-1]",Kd [2] [mM],"x0, herbicide dose required for 50% plant growth reduction (GR50) [10] [g a.e. ha^-1]","x0, herbicide dose required for 50% plant growth reduction (GR50) [11] [g a.e. ha^-1]",shikimate accumulation in leaf tissues (wild type (WT) E. indica) [µg/g]
"C=C(OP(=O)(O)O)C(=O)O [PEP, phosphoenolpyruvate]",1.1 to 3.1,3.1,8,4.1,2.4,0.7,2,33,1200,31.8,1100,31.3,–,–,–,–,–
"O=C(O)CNCP(=O)(O)O [Glyphosate, glyphosate]",–,–,–,–,–,–,0.023,–,25,–,28,–,3272.9 ± 164.1,0.058,540.5 ± 25.6,707.2 ± 122.1,366.4
